Data reported in patent US20090264481A1, “Compounds, Compositions and Methods Comprising Oxadiazole Derivatives” (Institute for OneWorld Health, priority 2008, published 2009).

Target: T1, CFTR channel (Homo sapiens, UniProt P13569)
T1 construct: results in the phosphorylation and opening of CFTR anion channels; host or cells: human colonic T84 cells
Experiment: T84 assay (FLIPR membrane potential, forskolin/IBMX-stimulated CFTR channel activity)
Assay type: cell-based
Settings: Human colonic T84 cells; 10 μM forskolin + 100 μM IBMX; average of at least 2 runs unless marked n = 1
Experimental: (§1) For example, Human colonic T84 cells can be acquired from the European Collection of Cell Cultures (ECACC) and grown in standard culture conditions as described by the supplier. On the day before assay 25,000 T84 cells per well are plated into standard black walled, clear bottom 384-well assay plates in standard growth medium consisting of DMEM:F12 with 10% FBS and incubated overnight. On the day of the assay the plates are washed using a standard assay buffer (HBSS with 10 mM Hepes) and incubated for 15 minutes in serum free cell culture medium before the addition of a commercially available membrane potential sensitive fluorescent dye (FLIPR Red membrane potential dye, Molecular Devices Corporation). T84 cells are incubated with the FLIPR Red membrane potential dye for 45 minutes in the presence and absence of test compound before being transferred to a commercially available fluorescence imaging plate reader (FLIPR384, Molecular Devices Corporation). Fluorescence levels are monitored continuously every second for 150 seconds; after an initial 10 second baseline, CFTR channel activity is stimulated through the addition of 10 μM forskolin in the presence of 100 μM of the phosphodiesterase inhibitor iso-butyl-methylxanthine (IBMX). Addition of the forskolin leads to the activation of intracellular adenylyl cylase 1, elevating cAMP levels and results in the phosphorylation and opening of CFTR anion channels. CFTR channel opening causes chloride ion efflux and subsequent depolarization of the cells, which is measured by an increase in fluorescence. CFTR inhibitor compounds prevent cell depolarization and the associated increase in fluorescence.
as §1, with “Human colonic” for “For example, Human colonic”, “T84 cells are acquired from” for “T84 cells can be acquired from”, “(ECACC) and are grown in” for “(ECACC) and grown in”

T1 sequence (P13569 whole entry): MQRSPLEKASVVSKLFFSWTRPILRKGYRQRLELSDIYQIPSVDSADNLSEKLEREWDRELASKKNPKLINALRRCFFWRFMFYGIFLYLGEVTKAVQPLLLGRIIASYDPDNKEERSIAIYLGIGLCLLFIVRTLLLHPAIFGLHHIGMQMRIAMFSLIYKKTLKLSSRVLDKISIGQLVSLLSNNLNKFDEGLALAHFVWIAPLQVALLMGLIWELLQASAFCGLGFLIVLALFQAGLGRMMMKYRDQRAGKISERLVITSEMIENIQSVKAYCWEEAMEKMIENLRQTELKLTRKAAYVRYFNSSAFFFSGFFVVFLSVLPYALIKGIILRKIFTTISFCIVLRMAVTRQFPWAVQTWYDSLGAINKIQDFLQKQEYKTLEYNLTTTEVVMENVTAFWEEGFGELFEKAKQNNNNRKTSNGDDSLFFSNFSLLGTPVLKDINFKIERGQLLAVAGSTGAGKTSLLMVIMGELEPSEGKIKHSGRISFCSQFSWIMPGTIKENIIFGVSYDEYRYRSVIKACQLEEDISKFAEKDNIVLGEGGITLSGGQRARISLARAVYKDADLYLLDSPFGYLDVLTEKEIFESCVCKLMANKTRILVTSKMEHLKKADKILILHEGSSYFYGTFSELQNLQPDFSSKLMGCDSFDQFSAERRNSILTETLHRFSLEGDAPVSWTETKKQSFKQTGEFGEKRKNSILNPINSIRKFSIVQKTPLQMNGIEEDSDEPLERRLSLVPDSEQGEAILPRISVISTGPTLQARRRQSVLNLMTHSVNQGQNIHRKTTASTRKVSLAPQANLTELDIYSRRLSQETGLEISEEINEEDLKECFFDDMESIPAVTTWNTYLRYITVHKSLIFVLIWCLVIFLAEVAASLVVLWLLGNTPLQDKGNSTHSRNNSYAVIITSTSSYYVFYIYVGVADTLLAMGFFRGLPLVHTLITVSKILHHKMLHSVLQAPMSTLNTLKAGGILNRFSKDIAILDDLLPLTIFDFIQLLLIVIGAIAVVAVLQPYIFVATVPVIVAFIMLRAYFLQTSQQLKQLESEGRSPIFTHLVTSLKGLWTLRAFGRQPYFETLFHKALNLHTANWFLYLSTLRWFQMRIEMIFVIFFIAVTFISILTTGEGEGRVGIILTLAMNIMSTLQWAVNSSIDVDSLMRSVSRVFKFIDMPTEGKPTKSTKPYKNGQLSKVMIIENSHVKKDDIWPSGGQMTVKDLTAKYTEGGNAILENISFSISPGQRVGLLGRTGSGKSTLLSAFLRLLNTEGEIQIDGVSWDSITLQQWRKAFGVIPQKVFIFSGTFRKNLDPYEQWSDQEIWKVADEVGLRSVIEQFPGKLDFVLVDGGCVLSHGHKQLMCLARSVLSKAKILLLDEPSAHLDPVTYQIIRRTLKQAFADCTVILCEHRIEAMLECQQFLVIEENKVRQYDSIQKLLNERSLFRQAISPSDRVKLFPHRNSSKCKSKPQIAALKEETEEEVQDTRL

| Compound | IC50 |
| --- | --- |
| Oc1c(Br)cc(-c2noc(C(O)(c3cccc(Cl)c3)c3cccc(Cl)c3)n2)cc1Br [Compound 8, 4-(5-(bis(3-chlorophenyl)(hydroxy)methyl)-1,2,4-oxadiazol-3-yl)-2,6-dibromophenol] | 11.4 µM |
| Oc1c(Br)cc(-c2noc(C(O)(c3ccc4ccccc4c3)c3ccc4ccccc4c3)n2)cc1Br [Compound 7, 2,6-dibromo-4-(5-(hydroxydinaphthalen-2-ylmethyl)-1,2,4-oxadiazol-3-yl)phenol] | 18.7 µM |
| Oc1c(Cl)cc(-c2noc(C(O)(c3ccc(Cl)cc3)c3ccc(Cl)cc3)n2)cc1Cl [Compound 11, 4-(5-(bis(4-chlorophenyl)(hydroxy)methyl)-1,2,4-oxadiazol-3-yl)-2,6-dichlorophenol] | 11.1 µM |
| COc1cccc(C(O)(c2cccc(OC)c2)c2nc(-c3cc(Cl)c(O)c(Cl)c3)no2)c1 [Compound 9, 2,6-dichloro-4-(5-(hydroxybis(3-methoxyphenyl)methyl)-1,2,4-oxadiazol-3-yl)phenol] | 9.65 µM |
| CC(C)(C)c1ccc(C(O)(c2ccc(C(C)(C)C)cc2)c2nc(-c3cc(Br)c(O)c(Br)c3)no2)cc1 [Compound 6, 4-(5-(bis(4-tert-butylphenyl)(hydroxy)methyl)-1,2,4-oxadiazol-3-yl)-2,6-dibromophenol] | 18.8 µM |
| CC#CC(O)(C#CC)c1nc(-c2cc(Br)c(O)c(Br)c2)no1 [Compound 12, 2,6-dibromo-4-(5-(4-hydroxyhepta-2,5-diyn-4-yl)-1,2,4-oxadiazol-3-yl)phenol] | 16.2 µM |

Now those with a lower IC50, led by results:

| IC50 | Compound |
| --- | --- |
| 6.94 µM | Oc1c(Cl)cc(-c2noc(C(O)(c3ccccc3)c3ccccc3)n2)cc1Cl [Compound 10, 2,6-dichloro-4-(5-(hydroxydiphenylmethyl)-1,2,4-oxadiazol-3-yl)phenol] |
| 5.85 µM | Oc1c(Br)cc(-c2noc(C(O)(c3ccccc3)c3ccccc3)n2)cc1Br [Compound 5, 2,6-dibromo-4-(5-(hydroxydiphenylmethyl)-1,2,4-oxadiazol-3-yl)phenol] |
| 5.63 µM | Oc1c(Br)cc(-c2noc(C(O)(c3ccc(Cl)cc3)c3ccc(Cl)cc3)n2)cc1Br [Compound 4, 4-(5-(bis(4-chlorophenyl)(hydroxy)methyl)-1,2,4-oxadiazol-3-yl)-2,6-dibromophenol] |
| 5.47 µM | COc1cccc(C(O)(c2cccc(OC)c2)c2nc(-c3cc(Br)c(O)c(Br)c3)no2)c1 [Compound 3, 2,6-dibromo-4-(5-(hydroxybis(3-methoxyphenyl)methyl)-1,2,4-oxadiazol-3-yl)phenol] |
| 5.04 µM | Oc1c(Br)cc(-c2noc(C(O)(c3cccc(F)c3)c3cccc(F)c3)n2)cc1Br [Compound 2, 4-(5-(bis(3-fluorophenyl)(hydroxy)methyl)-1,2,4-oxadiazol-3-yl)-2,6-dibromophenol] |
| 3.89 µM | Oc1c(Br)cc(-c2noc(C(O)(Cc3ccccc3)Cc3ccccc3)n2)cc1Br [Compound 1, 2,6-dibromo-4-(5-(2-hydroxy-1,3-diphenylpropan-2-yl)-1,2,4-oxadiazol-3-yl)phenol] |
